Source: patent publication US9802880B2, “Cannabigerol derivatives” (VIVACELL BIOTECHNOLOGY ESPAÑA S.L., priority 2014, dated 2017)

What was measured:
[1] = test system: PPARg; assay: PPARg transactivation assay in human dermal primary fibroblasts; format: cell-based; details: 6 h treatment, FIG. 2
Description: FIG. 2. PPARg Transactivation Assays in Human Dermal Primary Fibroblasts.

[2] = test system: PPARg; assay: PPARg transactivation assay in HEK-293 cells (GAL4-PPARγ / GAL4-luc); details: for increase of PPARg activity: 1 μM concentration; for PPARg activation (fold) compared with CBG-Q: HEK-293 cells, 6 h treatment, FIG. 1; for PPARg transactivation (luciferase activity, fold induction over untreated cells): increasing doses, 6 h
[3] = test system: N2a cells; assay: Neuroprotection assay, glutamate-induced excitotoxicity in N2a cells; format: cell-based; details: 1 h pre-incubation, then 5 mM glutamate 24 h, FIG. 5
Method: N2a cells were pre-incubated for 1 h with compounds (II) to (V) and (XII) at the indicated concentrations. Then, cells were treated for 24 h with 5 mM glutamate to induce excitotoxicity, or cytotoxicity in neuronal cells induced by neurotransmitters. Cell viability was quantified by MTT assay. […] Control was set as 100% and data were referred to that value.
Cultured N2A cells were pre-incubated with the compounds II, III, IV, V and XII at the indicated concentrations for 1 h and then treated with 5 mM glutamate to induce excitotoxicity during 24 h (FIG. 5). Cytotoxicity was determined by the MTT method as described in example 3. Results are shown as mean±S.D. from at least three independent experiments, and expressed as percentage of cell viability against the control sample (−). Control was set as 100% and data were referred to that value.

[4] = text refers to FIG. 1 and FIG. 2

With `CCCCCC1=C(C(=O)OC)C(=O)C(C/C=C(\C)CCC=C(C)C)=C(O)C1=O` [Compound II, 6-(3,7-dimethyl-octa-2,6-dienyl)-5-hydroxy-3-pentyl-2-metoxycarbonil-[1,4]benzoquinone] the “PPARg activation (fold) compared with CBG-Q” value (shortened to “PPARg activation (fold)”) [1] was “higher efficiency than CBG-Q”, the “increase of PPARg activity” value [2, 4] was no more than 12 times and the “PPARg activation (fold)” value [2] was “higher efficiency than CBG-Q”. For the same compound, the “potency to activate PPARg compared with CBG-Q” value ([2]; concentrations of 1 to 25 μM, text refers to FIG. 1 and FIG. 2) was “significantly more potent than compound CBG-Q” and the “protection from glutamate-induced cytotoxicity (cell viability, MTT)” value (“protection” below) [3] was “protect neuronal cells from glutamate-induced apoptosis”.
In the case of `CCCCCNC1=C(CCCCC)C(=O)C(O)=C(C/C=C(\C)CCC=C(C)C)C1=O` [Compound IV, 6-(3,7-dimethyl-octa-2,6-dienyl)-5-hydroxy-3-pentyl-2-pentylamino-[1,4]benzoquinone], the “PPARg activation (fold)” value [1] is reported as “higher efficiency than CBG-Q”, the “PPARg activation (fold)” value [2] is reported as “higher efficiency than CBG-Q” and the “PPARg transactivation (luciferase activity, fold induction over untreated cells)” value [2, 4] is reported as “most active compounds”. For the same compound, the “protection” value [3] was “protect neuronal cells from glutamate-induced apoptosis”.
For `CCCCCC1=C(NCC(C)C)C(=O)C(C/C=C(\C)CCC=C(C)C)=C(O)C1=O` [Compound V, 6-(3,7-dimethyl-octa-2,6-dienyl)-5-hydroxy-3-pentyl-2-isobutylamino [1,4]benzoquinone], the “PPARg activation (fold)” value [1] was “higher efficiency than CBG-Q”, the “PPARg activation (fold)” value [2] was “higher efficiency than CBG-Q” and the “PPARg transactivation (luciferase activity, fold induction over untreated cells)” value [2, 4] was “most active compounds”. The “protection” value [3] was “protect neuronal cells from glutamate-induced apoptosis”.
With `CCCCCC1=C(NC)C(=O)C(C/C=C(\C)CCC=C(C)C)=C(O)C1=O` [Compound VII, 6-(3,7-dimethyl-octa-2,6-dienyl)-5-hydroxy-3-pentyl-2-methylamino-[1,4]benzoquinone] the “PPARg activation (fold)” value [2] was “higher efficiency than CBG-Q”.
For `CCCCCC1=C(NC(C)C)C(=O)C(C/C=C(\C)CCC=C(C)C)=C(O)C1=O` [Compound VIII, 6-(3,7-imethyl-octa-2,6-dienyl)-5-hydroxy-3-pentyl-2-isopropylamino-[1,4]benzoquinone], the “PPARg activation (fold)” value [2] was “higher efficiency than CBG-Q”.
With `CN(CCOc1ccc(CC2SC(=O)NC2=O)cc1)c1ccccn1` (stereo not shown) [Rosiglitazone, reference compound] the “increase of PPARg activity” value [2, 4] was “more than 100 times”.
